# Experimental data taken from patent US9469631B2 (Boehringer Ingelheim International GmbH, priority 2012, dated 2016).
# Target: human GPR119 (Homo sapiens (Human), UniProt Q8TDV5)
# Experiment: AlphaScreen cAMP assay in MIN6 cells stably transfected with human GPR119
# Assay type: cell-based
# Details: Min-6/hGPR119 cells, 45 min incubation at room temperature
# In short: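 MIN6 cells stably expressing human GPR119 were seeded at 10000 cells/well for 24 h. Compounds were then applied in pH 7.4 buffer with 0.5 mM IBMX, 0.1% BSA and 1% DMSO for 45 min at about 20 °C. Intracellular cAMP was measured by AlphaScreen.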
# human GPR119, sequence (Q8TDV5 whole entry): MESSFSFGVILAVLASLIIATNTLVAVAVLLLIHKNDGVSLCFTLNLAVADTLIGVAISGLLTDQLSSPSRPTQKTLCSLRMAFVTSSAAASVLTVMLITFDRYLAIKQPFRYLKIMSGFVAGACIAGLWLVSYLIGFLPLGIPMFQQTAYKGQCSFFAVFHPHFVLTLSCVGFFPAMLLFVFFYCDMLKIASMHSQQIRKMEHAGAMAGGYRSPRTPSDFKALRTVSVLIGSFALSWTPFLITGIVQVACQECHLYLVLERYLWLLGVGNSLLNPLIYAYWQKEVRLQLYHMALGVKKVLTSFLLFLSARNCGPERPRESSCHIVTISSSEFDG
row,SMILES,EC50
1,"CC(C)(C)OC(=O)N1CCC(N(C(=O)c2ccc(-c3ccsc3)cc2)C2CC2)CC1 [Example 80, 4-[Cyclopropyl-(4-thiophen-3-yl-benzoyl)-amino]-piperidine-1-carboxylic acid tert-butyl ester]",345 nM
2,"CC(C)(C)OC(=O)N1CCC(N(C(=O)c2ccc(-c3ccccc3C#N)cc2)C2CC2)CC1 [Example 94, 4-[(2′-Cyano-biphenyl-4-carbonyl)-cyclopropyl-amino]-piperidine-1-carboxylic acid tert-butyl ester]",317 nM
3,"C[C@@H]1CN(C(=O)OC(C)(C)C)CC[C@@H]1N(C(=O)c1ccc(-c2cnco2)cc1)C1CC1 (single isomer, unassigned) [Example 46]",7 nM
4,"CC(C)(C)OC(=O)N1CCC(N(C(=O)c2ccc(-c3ccncc3)cc2)C2CC2)CC1 [Example 70, 4-[Cyclopropyl-(4-pyridin-4-yl-benzoyl)-amino]-piperidine-1-carboxylic acid tert-butyl ester]",41 nM
5,"Cc1c(-c2ccccc2)ncn1-c1ccc(C(=O)N(C2CC2)C2CCN(C(=O)OC(C)(C)C)CC2)cc1 [Example 83, 4-{Cyclopropyl-[4-(5-methyl-4-phenyl-imidazol-1-yl)-benzoyl]-amino}-piperidine-1-carboxylic acid tert-butyl ester]",291 nM
6,"COc1ccc(OC(=O)N2CCC(N(C(=O)c3ccc(-c4cnco4)cc3)C3CC3)CC2)cc1 [Example 120, 4-[Cyclopropyl-(4-oxazol-5-yl-benzoyl)-amino]-piperidine-1-carboxylic acid 4-methoxy-phenyl ester]",71 nM
7,"CC(C)(OC(=O)N1CCC(N(C(=O)c2ccc(-c3cnco3)cc2)C2CC2)CC1)C(F)(F)F [Example 130, 4-[Cyclopropyl-(4-oxazol-5-yl-benzoyl)-amino]-piperidine-1-carboxylic acid 2,2,2-trifluoro-1,1-dimethyl-ethyl ester]",10 nM
8,"CC(C)(C)OC(=O)N1CCC(N(C(=O)c2ccc(-c3ccc(N4CCOCC4)cc3)cc2)C2CC2)CC1 [Example 101, 4-[Cyclopropyl-(4′-morpholin-4-yl-biphenyl-4-carbonyl)-amino]-piperidine-1-carboxylic acid tert-butyl ester]",127 nM
9,"C=CCOC(=O)N1CCC(N(C(=O)c2ccc(-c3cnco3)cc2)C2CC2)CC1 [Example 127, 4-[Cyclopropyl-(4-oxazol-5-yl-benzoyl)-amino]-piperidine-1-carboxylic acid allyl ester]",102 nM
10,"O=C(OCC1CCOCC1)N1CCC(N(C(=O)c2ccc(-c3cnco3)cc2)C2CC2)CC1 [Example 14, 4-[Cyclopropyl-(4-oxazol-5-yl-benzoyl)-amino]-piperidine-1-carboxylic acid tetrahydro-pyran-4-ylmethyl ester]",1080 nM
11,"CC(C)(C)OC(=O)N1CCC(N(C(=O)c2ccc(-c3ccc(C(=O)O)nc3)cc2)C2CC2)CC1 [Example 115, 5-{4[(1-tert-Butoxycarbonyl-piperidin-4-yl)-cyclopropyl-carbamoyl]-phenyl}-pyridine-2-carboxylic acid]",1090 nM
12,"CCOC(=O)c1c(C)nn(-c2ccc(C(=O)N(C3CC3)C3CCN(C(=O)OC(C)(C)C)CC3)cc2)c1C [Example 79, 4-{Cyclopropyl-[4-(4-ethoxycarbonyl-3,5-dimethyl-pyrazol-1-yl)-benzoyl]-amino}-piperidine-1-carboxylic acid tert-butyl ester]",1010 nM
13,"CC(C)(C)OC(=O)N1CCC(N(C(=O)c2ccc(-n3cnc(-c4ccccc4)c3)cc2)C2CC2)CC1 [Example 56, 4-{Cyclopropyl-[4-(4-phenyl-imidazol-1-yl)-benzoyl]-amino}-piperidine-1-carboxylic acid tert-butyl ester]",104 nM
14,"CC(C)(O)COC(=O)N1CCC(N(C(=O)c2ccc(-c3cnco3)cc2)C2CC2)CC1 [Example 15, 4-[Cyclopropyl-(4-oxazol-5-yl-benzoyl)-amino]-piperidine-1-carboxylic acid 2-hydroxy-2-methyl-propyl ester]",4460 nM
15,"CC(C)(C)OC(=O)N1CCC(N(C(=O)c2ccc(-c3ccno3)cc2)C2CC2)CC1 [Example 57, 4-[Cyclopropyl-(4-isoxazol-5-yl-benzoyl)-amino]-piperidine-1-carboxylic acid tert-butyl ester]",99 nM
16,"CC(C)(C)OC(=O)N1CCC(N(C(=O)c2ccc(-c3ccoc3)cc2)C2CC2)CC1 [Example 90, 4-[Cyclopropyl-(4-furan-3-yl-benzoyl)-amino]-piperidine-1-carboxylic acid tert-butyl ester]",228 nM
17,"CC(C)(C)OC(=O)N1CCC(N(C(=O)c2ccc(-c3ccnnc3)cc2)C2CC2)CC1 [Example 23, 4-[Cyclopropyl-(4-pyridazin-4-yl-benzoyl)-amino]-piperidine-1-carboxylic acid tert-butyl ester]",236 nM
18,"CCOC(=O)c1cnn(-c2ccc(C(=O)N(C3CC3)C3CCN(C(=O)OC(C)(C)C)CC3)cc2)c1C [Example 78, 4-{Cyclopropyl-[4-(4-ethoxycarbonyl-5-methyl-pyrazol-1-yl)-benzoyl]-amino}-piperidine-1-carboxylic acid tert-butyl ester]",75 nM
19,"O=C(Oc1ccc(F)cc1)N1CCC(N(C(=O)c2ccc(-c3cnco3)cc2)C2CC2)CC1 [Example 119, 4-[Cyclopropyl-(4-oxazol-5-yl-benzoyl)-amino]-piperidine-1-carboxylic acid 4-fluoro-phenyl ester]",89 nM
20,"CC(C)(C)OC(=O)N1CCC(N(C(=O)c2ccc(-c3ccc(OC(F)(F)F)cc3)cc2)C2CC2)CC1 [Example 88, 4-[Cyclopropyl-(4′-trifluoromethoxy-biphenyl-4-carbonyl)-amino]-piperidine-1-carboxylic acid tert-butyl ester]",203 nM
21,"C=C(C)OC(=O)N1CCC(N(C(=O)c2ccc(-c3cnco3)cc2)C2CC2)CC1 [Example 3, 4-[Cyclopropyl-(4-oxazol-5-yl-benzoyl)-amino]-piperidine-1-carboxylic acid isopropenyl ester]",124 nM
22,"CC(C)(C)OC(=O)N1CCC(N(C(=O)c2ccc(-c3ccc(C#N)c(F)c3)cc2)C2CC2)CC1 [Example 106, 4-[(4′-Cyano-3′-fluoro-biphenyl-4-carbonyl)-cyclopropyl-amino]-piperidine-1-carboxylic acid tert-butyl ester]",78 nM
23,"CC(C)(C)OC(=O)N1CCC(N(C(=O)c2ccc(-c3cccs3)cc2)C2CC2)CC1 [Example 58, 4-[Cyclopropyl-(4-thiophen-2-yl-benzoyl)-amino]-piperidine-1-carboxylic acid tert-butyl ester]",214 nM
24,"CC(C)(C)OC(=O)N1CCC(N(C(=O)c2c(F)cc(-c3cnco3)cc2F)C2CC2)CC1 [Example 36, 4-[Cyclopropyl-(2,6-difluoro-4-oxazol-5-yl-benzoyl)-amino]-piperidine-1-carboxylic acid tert-butyl ester]",219 nM

# More lines, now with the values ahead:
row,EC50,SMILES
1,634 nM,"CC(C)(C)OC(=O)N1CC[C@@H](N(C(=O)c2ccc(-c3cnco3)cc2)C2CC2)[C@H](F)C1 (single isomer, unassigned) [Example 39]"
2,816 nM,"CC(C)(C)OC(=O)N1CCC(N(C(=O)c2ccc(-c3ocnc3I)cc2)C2CC2)CC1 [Example 4, 4-{Cyclopropyl-[4-(4-iodo-oxazol-5-yl)-benzoyl]-amino}-piperidine-1-carboxylic acid tert-butyl ester]"
3,85 nM,"Cc1noc(C)c1-c1ccc(C(=O)N(C2CC2)C2CCN(C(=O)OC(C)(C)C)CC2)cc1 [Example 95, 4-{Cyclopropyl-[4-(3,5-dimethyl-isoxazol-4-yl)-benzoyl]-amino}-piperidine-1-carboxylic acid tert-butyl ester]"
4,659 nM,"CC(C)(C)OC(=O)N1CCC(N(C(=O)c2ccc(-c3ccco3)cc2)C2CC2)CC1 [Example 65, 4-[Cyclopropyl-(4-furan-2-yl-benzoyl)-amino]-piperidine-1-carboxylic acid tert-butyl ester]"
5,19 nM,"CC1(OC(=O)N2CCC(N(C(=O)c3ccc(-c4ccncc4C#N)cc3)C3CC3)CC2)CC1 [Example 32, 4-{[4-(3-Cyano-pyridin-4-yl)-benzoyl]-cyclopropyl-amino}-piperidine-1-carboxylic acid 1-methyl-cyclopropyl ester]"
6,256 nM,"CCOc1ccc(-c2ccc(C(=O)N(C3CC3)C3CCN(C(=O)OC(C)(C)C)CC3)cc2)cc1 [Example 87, 4-[Cyclopropyl-(4′-ethoxy-biphenyl-4-carbonyl)-amino]-piperidine-1-carboxylic acid tert-butyl ester]"
7,96 nM,"Cc1nc(-c2ccccc2)cn1-c1ccc(C(=O)N(C2CC2)C2CCN(C(=O)OC(C)(C)C)CC2)cc1 [Example 84, 4-{Cyclopropyl-[4-(2-methyl-4-phenyl-imidazol-1-yl)-benzoyl]-amino}-piperidine-1-carboxylic acid tert-butyl ester]"
8,49 nM,"CC(C)OC(=O)N1CCC(N(C(=O)c2ccc(-c3ccncc3C#N)cc2)C2CC2)CC1 [Example 31, 4-{[4-(3-Cyano-pyridin-4-yl)-benzoyl]-cyclopropyl-amino}-piperidine-1-carboxylic acid isopropyl ester]"
9,238 nM,"CC(C)(C)OC(=O)N1CCC(N(C(=O)c2ccc(-c3ncon3)cc2)C2CC2)CC1 [Example 25, 4-[Cyclopropyl-(4-[1,2,4]oxadiazol-3-yl-benzoyl)-amino]-piperidine-1-carboxylic acid tert-butyl ester]"
10,137 nM,"CC(C)(C)OC(=O)N1CCC(N(C(=O)c2ccc(-n3cnnn3)cc2)C2CC2)CC1 [Example 22, 4-[Cyclopropyl-(4-tetrazol-1-yl-benzoyl)-amino]-piperidine-1-carboxylic acid tert-butyl ester]"
11,513 nM,"Cc1nnc(-c2ccc(C(=O)N(C3CC3)C3CCN(C(=O)OC(C)(C)C)CC3)cc2)o1 [Example 61, 4-{Cyclopropyl-[4-(5-methyl-[1,3,4]oxadiazol-2-yl)-benzoyl]-amino}-piperidine-1-carboxylic acid tert-butyl ester]"
